{"source": "patent US8242167B2", "about": "“Mannose derivatives for killing tumor cells” (University of Miami, priority 2006, dated 2012)", "key": {"143B, osteosarcoma": {"test_system": "143B, osteosarcoma", "assay": "Cytotoxicity under normoxia, 143B", "assay_type": "cell-based, human", "details": "column head gives the result: resistant", "experimental": "(§1) Cell types. The Δ^0 cells were isolated by treating osteosarcoma cell line 143B (wt) with ethidium bromide for prolonged periods, as previously described (9). Because the Δ^0 cells are uridine and pyruvate auxotrophs, they were grown in DMEM (GIBCO, USA) supplemented with 10% fetal calf serum, 50 μg/ml of uridine and 100 mM sodium pyruvate. The SKBR3 cell line was obtained from Dr. Joseph Rosenblatt's laboratory at the University of Miami. The pancreatic cancer cell lines 1420 and 1469, the ovarian cancer cell line SKOV3, the cervical cancer cell line HELA, and the osteosarcoma cell line 143B were purchased from ATCC. The non-small cell lung cancer and small cell lung cancer cell lines were derived from patients by Dr. Niramol Savaraj at the University of Miami. SKBR3 and SKOV3 cells were grown in McCoy's 5A medium; 1420, 1469 and 143B were grown in DMEM (GIBCO, USA); and HELA was grown in MEM (GIBCO, USA). The media was supplemented with 10% fetal bovine serum. All cells were grown under 5% CO2 and 37° C. Cytotoxicity assay. Cells were incubated for 24 hr at 37° C. in 5% CO2 at which time drug treatments began and continued for 72 hr. […] The pellets were resuspended in 1 ml of Hanks solution and analyzed by Vi-Cell (Beckman Coulter, USA) cell viability analyzer."}, "SKBR3 cells": {"test_system": "SKBR3 cells", "assay": "Growth inhibitory and cytotoxicity assay in SKBR3 cells under normoxia", "assay_type": "cell-based, human", "experimental": "Cytotoxicity assay and Rapid DNA Content Analysis. Cells were incubated for 24 hr at 37° C. in 5% CO2 at which time drug treatments began and were continued for 72 hr. At this time, attached cells were trypsinized and combined with their respective culture media followed by centrifugation at 400 g for 5 min. Pellets containing the cells were either resuspended in 1.5 ml of a medium/trypan blue mixture for cytotoxicity assays or propidium iodide/hypotonic citrate staining solution for determining the nuclear DNA content and cell cycle by a Coulter XL flow cytometer. A minimum of 10,000 cells were analyzed to generate a DNA distribution histogram.\n(§2) Cytotoxicity assay. Cells were incubated for 24 hr at 37° C. in 5% CO2 at which time drug treatments began and continued for 72 hr. At this time, attached cells were trypsinized and combined with their respective culture media followed by centrifugation at 400 g for 5 min. The pellets were resuspended in 1 ml of Hanks solution and analyzed by Vi-Cell (Beckman Coulter, USA) cell viability analyzer."}, "1469, pancreatic cancer": {"test_system": "1469, pancreatic cancer", "assay": "Cytotoxicity under normoxia, 1469", "assay_type": "cell-based", "details": "column head gives the result: resistant", "experimental": "as §1"}, "[1]": {"test_system": "MDA-MB-468, breast cancer", "assay": "Cytotoxicity under normoxia, MDA-MB-468", "assay_type": "cell-based", "details": "column head gives the result: resistant", "experimental": "as §2"}, "[2]": {"details": "animal studies and preliminary Phase I results; cited from earlier work"}, "[3]": {"test_system": "S-1 & S-2, non-small cell lung cancer", "assay": "Cytotoxicity under normoxia, NSCLC", "assay_type": "cell-based, human", "details": "normoxic conditions", "experimental": "as §1"}, "Grp78 and Grp94 [4]": {"test_system": "Grp78 and Grp94", "assay": "Western blot of Grp78 and Grp94 in models of hypoxia A, B & C", "assay_type": "cell-based", "experimental": "(§3) Western Blot analysis. Cells were plated at 10^4 cell cm^−2 and grown under drug treatment for the indicated times. At the end of the treatment period, cells were collected and lysed with 1% SDS in 80 mM Tris-HCL (ph 7.4) buffer supplemented with a proteinase inhibitor cocktail. DNA was fragmented by sonication and protein concentrations were measured by microBCA protein assay kit (Pierce, USA). Samples were mixed with 2× Laemmli sample buffer (Bio-Rad, USA) and run on a SDS-polyacrylamide gel. Gels were transferred to nitrocellulose membranes (Amersham, USA) and probed with anti-KDEL (Stressgen, Canada) (for Grp78 and Grp94); polyclonal anti-CHOP/[…] (Santa Cruz, USA), polyclonal anti-erbB2 (DAKO, USA). Following probing, membranes were washed and incubated with an HRP conjugated secondary antibody. Chemiluminesence was detected by exposure to film. Where indicated, membranes were stripped with Stripping Buffer (Pierce, USA) and reprobed with anti-actin (Sigma, USA) primary antibody. To analyze conconavalin A (ConA) binding, the membranes were incubated with 0.2 μg/ml HRP-conjugated ConA, and chemiluminescence was detected as described.\nThree in vitro models of hypoxia. We previously characterized three models of anaerobiosis as follows: Model A are tumor cells treated with 0.05 μg/ml of oligomycin (a mitochondrial inhibitor of ATP synthase); Model B are cells that are deficient in mitochondrial DNA and Model C are cells treated in an hypoxic (0.5% O^2) chamber (Reming Bioinstruments, Redfield, N.Y.)."}, "fowl plague virus": {"test_system": "fowl plague virus", "details": "chick embryo fibroblasts infected with fowl plague virus; cited from earlier work"}, "tumor cell lines": {"test_system": "tumor cell lines", "assay": "Toxicity survey of tumor cell lines under normoxic conditions", "assay_type": "cell-based", "experimental": "(§4) Cell types. The Δ^0 cells were isolated by treating osteosarcoma cell line 143B (wt) with ethidium bromide for prolonged periods, as previously described (9). Because the Δ^0 cells are uridine and pyruvate auxotrophs, they were grown in DMEM (GIBCO, USA) supplemented with 10% fetal calf serum, 50 μg/ml of uridine and 100 mM sodium pyruvate. The SKBR3 cell line was obtained from Dr. Joseph Rosenblatt's laboratory at the University of Miami. The pancreatic cancer cell lines 1420 and 1469, the ovarian cancer cell line SKOV3, the cervical cancer cell line HELA, and the osteosarcoma cell line 143B were purchased from ATCC. The non-small cell lung cancer and small cell lung cancer cell lines were derived from patients by Dr. Niramol Savaraj at the University of Miami. SKBR3 and SKOV3 cells were grown in McCoy's 5A medium; 1420, 1469 and 143B were grown in DMEM (GIBCO, USA); and HELA was grown in MEM (GIBCO, USA). The media was supplemented with 10% fetal bovine serum. All cells were grown under 5% CO2 and 37° C.\nas §2"}, "CHOP/GADD154": {"test_system": "CHOP/GADD154", "assay": "Western blot of CHOP/GADD154 in SKBR3 cells", "assay_type": "cell-based, human", "details": "SKBR3, normoxia, 24 hrs; 8 mM sugar analog", "experimental": "as §3"}, "erbB2": {"test_system": "erbB2", "assay": "Western blot of erbB2 in SKBR3 cells", "assay_type": "cell-based, human", "experimental": "as §3"}, "human tumor xenografts": {"test_system": "human tumor xenografts", "details": "different human tumor xenografts; cited from earlier work"}, "HELA, cervical cancer": {"test_system": "HELA, cervical cancer", "assay": "Cytotoxicity under normoxia, HELA", "assay_type": "cell-based", "details": "column head gives the result: sensitive", "experimental": "as §1"}, "HEPA-1": {"test_system": "HEPA-1", "assay": "Cytotoxicity under normoxia, HEPA-1", "assay_type": "cell-based, rat", "details": "column head gives the result: resistant", "experimental": "as §2"}, "[5]": {"test_system": "MDA-MB-231, breast cancer", "assay": "Cytotoxicity under normoxia, MDA-MB-231", "assay_type": "cell-based", "details": "column head gives the result: resistant", "experimental": "as §2"}, "1420, pancreatic cancer": {"test_system": "1420, pancreatic cancer", "assay": "Cytotoxicity under normoxia, 1420", "assay_type": "cell-based, human", "details": "column head gives the result: sensitive", "experimental": "as §4, §2"}, "SKOV3, ovarian cancer": {"test_system": "SKOV3, ovarian cancer", "assay": "Cytotoxicity under normoxia, SKOV3", "assay_type": "cell-based", "details": "column head gives the result: resistant", "experimental": "as §1"}, "[6]": {"test_system": "glycoproteins (ConA binding) in SKBR3 cells", "assay": "HRP-conjugated ConA blot of SKBR3 cell extracts", "assay_type": "cell-based, human", "details": "SKBR3, 48 hr, 8 mM sugar analog", "experimental": "as §3"}, "Grp78 and Grp94 [7]": {"test_system": "Grp78 and Grp94", "assay": "Western blot of Grp78 and Grp94 (unfolded protein response) in SKBR3 cells under normoxia", "assay_type": "cell-based, human", "experimental": "as §3"}, "MCF-7, breast cancer": {"test_system": "MCF-7, breast cancer", "assay": "Cytotoxicity under normoxia, MCF-7", "assay_type": "cell-based", "details": "column head gives the result: resistant", "experimental": "as §2"}, "[8]": {"test_system": "TG98, brain cancer (glioblastoma)", "assay": "Cytotoxicity under normoxia, TG98", "assay_type": "cell-based", "details": "column head gives the result: sensitive", "experimental": "as §2"}}, "data": [{"molecule": "O=CC[C@@H](O)[C@H](O)[C@H](O)CO", "note": "[2-DG, 2-deoxy-D-glucose]", "values": [{"measurement": "2-DG Resistant Cell Lines (2-DG under normoxia)", "setting": "143B, osteosarcoma", "value": "143B, osteosarcoma"}, {"measurement": "cells killed", "setting": "SKBR3 cells; SKBR3, 12 mM, 72 hrs, normoxic conditions", "value": 60, "unit": "%"}, {"measurement": "cytotoxicity measured by trypan blue exclusion", "setting": "SKBR3 cells; SKBR3, 72 hrs, normal oxygen conditions", "value": "toxic"}, {"measurement": "2-DG Sensitive Cell Lines (2-DG under normoxia)", "setting": "SKBR3 cells; column head gives the result: sensitive", "value": "SKBR3, breast cancer"}, {"measurement": "rank order in growth inhibiting and killing SKBR3 cells", "setting": "SKBR3 cells; normoxia", "value": "2-DG>2-FDM>>>2-FDG"}, {"measurement": "2-DG Resistant Cell Lines (2-DG under normoxia)", "setting": "1469, pancreatic cancer", "value": "1469, pancreatic cancer"}, {"measurement": "2-DG Resistant Cell Lines (2-DG under normoxia)", "setting": "[1]", "value": "MDA-MB-468, breast cancer"}, {"measurement": "tolerability", "setting": "[2]", "value": "well-tolerated and relatively non-toxic to normal cells"}, {"measurement": "toxicity to NSCLC", "setting": "[3]", "value": "toxic"}, {"measurement": "upregulation of the UPR (Grp78, Grp94)", "setting": "Grp78 and Grp94 [4]; hypoxia model C", "value": "both chaperones are upregulated"}, {"measurement": "upregulation of the UPR (Grp78, Grp94)", "setting": "Grp78 and Grp94 [4]; hypoxia models A and B", "value": "no significant upregulation of the UPR"}, {"measurement": "order of potency to inhibit viral glycoprotein synthesis", "setting": "fowl plague virus", "value": "2-DG>2-FDM>2-FDG"}, {"measurement": "tumor cell lines undergoing significant cell death", "setting": "tumor cell lines; 6 mM, normal oxygen tension", "value": "6 out of 15"}, {"measurement": "dose at which a select number of tumor cell lines are killed", "setting": "tumor cell lines; normal oxygen tension", "value": 4, "unit": "mM"}, {"measurement": "toxicity to select tumor cell types", "setting": "tumor cell lines; normoxia", "value": "toxic to select tumor cell types growing under normoxia"}, {"measurement": "induction of GADD154/CHOP", "setting": "CHOP/GADD154", "value": "induced"}, {"measurement": "molecular weight of erbB2", "setting": "erbB2", "value": "decreased the molecular weight of erbB2"}, {"measurement": "effect on efficacy of standard chemotherapeutic agents", "setting": "human tumor xenografts", "value": "increases the efficacy of standard chemotherapeutic agents"}, {"measurement": "2-DG Sensitive Cell Lines (2-DG under normoxia)", "setting": "HELA, cervical cancer", "value": "HELA, cervical cancer"}, {"measurement": "2-DG Resistant Cell Lines (2-DG under normoxia)", "setting": "HEPA-1", "value": "HEPA-1, rat hepatoma"}, {"measurement": "2-DG Resistant Cell Lines (2-DG under normoxia)", "setting": "[5]", "value": "MDA-MB-231, breast cancer"}, {"measurement": "2-DG Sensitive Cell Lines (2-DG under normoxia)", "setting": "1420, pancreatic cancer", "value": "1420, pancreatic cancer"}, {"measurement": "2-DG Resistant Cell Lines (2-DG under normoxia)", "setting": "SKOV3, ovarian cancer", "value": "SKOV3, ovarian cancer"}, {"measurement": "ConA binding of glycoproteins", "setting": "[6]", "value": "decrease ConA binding"}, {"measurement": "expression of chaperones Grp78 and Grp94", "setting": "Grp78 and Grp94 [7]; SKBR3, normoxia, 24 hrs, 8 mM sugar analog, tunicamycin 1 micro g/ml", "value": "both Grp78 and Grp94 are upregulated"}, {"measurement": "up-regulation of GRP 78 and 94, dose dependence", "setting": "Grp78 and Grp94 [7]; select tumor cells, normoxic conditions", "value": "up-regulated by 2-DG and 2-FM in a dose-dependent manner"}, {"measurement": "2-DG Resistant Cell Lines (2-DG under normoxia)", "setting": "MCF-7, breast cancer", "value": "MCF-7, breast cancer"}, {"measurement": "2-DG Sensitive Cell Lines (2-DG under normoxia)", "setting": "[8]", "value": "TG98, brain cancer (glioblastoma)"}]}]}
